Measurements taken from patent US5461057A, “Hydro-ethano-indeno-pyridines” (priority 1994, dated 1995).
Like-named read-outs stand apart in the source and are kept apart here.

Key:
[1] = tested on: histamine-induced dyspnea; assay: Bronchodilator (in vivo) Guinea Pig Dyspnea; conditions: oral, one hour before histamine challenge
Method in brief: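 Fasted, unanesthetized guinea pigs (250-350 g) received the test drug orally one hour before exposure to an aerosolized 0.1% histamine solution. Onset of dyspnea was recorded, and data were expressed as number tested over number survived.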

[2] = tested on: LOX human melanoma cell adhesion to human fibronectin; assay: LOX melanoma cell adhesion to fibronectin; format: cell-based; conditions: Homo sapiens, LOX; for inhibition at 10 µM: read-out: % Inhibition at 10 μM; for inhibition at 50 µM: read-out: % Inhibition at 50 μM
Method in brief: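 Compound added to fibronectin-coated (140 ng/well), BSA-blocked wells before LOX cells (1×10^5/well, detached with urea/EDTA). Cells adhered 1 h at 37 °C, then washed. Adherent cells quantified by calcein AM fluorescence (485/530 nm); IC50 for adhesion inhibition.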

[3] = tested on: M27 murine lung carcinoma cell adhesion to fibronectin; assay: M27 lung carcinoma cell adhesion to fibronectin; format: cell-based; conditions: Mus musculus; read-out: M27 FN IC50
Description: (§1) Adhesion assays were run essentially as described previously (Pai et al., J. Biomed. Res. 2: 53, 1992). 96-well plates were coated with human fibronectin (140 ng/well), human vitronectin (75 ng/well), human collagen I (100 ng/well), human collagen IV (100 ng/well), human fibrinogen (1 μg/well), murine laminin (600 ng/well), or polylysine, and incubated overnight in a humidified 37° C. incubator. Excess fibronectin or other substrate was then removed and 0.2 ml of 2 mg/ml bovine serum albumin (BSA)in Dulbecco's phosphate-buffered saline (DPBS) was added to each well, incubated for 2 hours at 37° C., and removed. LOX human melanoma cells, M27 murine lung carcinoma cells or B16F10 mouse melanoma cells were detached from tissue culture flasks with RPMI medium containing 0.2M urea and 10 mM EDTA, and 0.18 ml of cells were added to each well to a final cell concentration of 1×10^5 cells/well. For inhibition studies 20 μl of 10× compound was added to the wells prior to cell addition. Cells were allowed to adhere for 1 hour at 37° C. The wells were then gently washed twice with 0.2 ml DPBS. The fluorescent dye calcein AM (Molecular Probes, Eugene Oreg.) in DPBS (0.1 ml of 1 μM) was added to each well, and the plates were incubated for 1 hour at room temperature. Adherent cells were quantitated by reading the fluorescence on a Cytofluor 2300 fluorescent plate reader (Millipore) at 485 nm excitation and 530 nm emission.

[4] = tested on: B16-F10 mouse melanoma cell adhesion to fibronectin; assay: B16-F10 melanoma cell adhesion to fibronectin; format: cell-based; conditions: read-out: B16 FN IC50
Description: as §1

LOX human melanoma cells = assay: Tumor cell invasion through collagen/fibronectin coated membranes; format: cell-based; conditions: for IC50: Homo sapiens, 5 hours; for inhibition of in vitro tumor cell invasion: fibronectin/collagen matrix
Description: […] Cell Invasion Through Collagen/Fibronectin Coated Membranes:
Nucleopore polycarbonate membranes (8 μm pore size) were coated with 0.05 ml of type I collagen and allowed to dry overnight. 210 μl of serum free DMEM with BSA was added to each Boyden chamber. Membranes were placed in chambers and upper chambers were screwed on. Human fibronectin (50 μl of 0.1 mg/ml solution in DMEM with BSA) was added to the top chamber and allowed to sit on membranes for 1 hour at room temperature. Compounds (50 μl) at 10× concentration in DMEM with BSA were added to the chambers. LOX melanoma cells were detached from flasks with trypsin/EDTA solution and resuspended in RPMI with 10% fetal bovine serum. Cells were centrifuged, washed 2× with DMEM with BSA, and resuspended in 10 ml of DMEM with BSA. LOX cells (0.45 ml of 7.8×10^5 cells per ml) were added to each chamber and chambers were incubated for 5 hours at 37° C. The medium was removed from the upper chamber by aspiration, the top chamber was unscrewed, and the membrane was removed. The membrane was inverted, pinned to a dissecting tray, and fixed with Diff Quik fixative for 3 minutes The fixative was then removed and Diff Quik Stain was added for 2 minutes. The stain was decanted and membranes were rinsed with distilled water. Membranes were inverted onto glass slides, and non-invading cells were wiped away with a cotton swab. Permount was added to the slide and the membrane was covered with a cover slip. The number of cells that invaded was quantitated on a Nikon TMS microscope with C-2 Image Analyzer software (Olympus Corp.).
The greater potency of the compounds in this assay (IC50 for compound B<400 nM) may result from the longer duration of this assay (5 hours) relative to the fibronectin adhesion assay (1 hour).

ELAM-1 = ELAM-1 (Homo sapiens, UniProt P16581); assay: cell-based
Chain of ELAM-1 (P16581 22-610): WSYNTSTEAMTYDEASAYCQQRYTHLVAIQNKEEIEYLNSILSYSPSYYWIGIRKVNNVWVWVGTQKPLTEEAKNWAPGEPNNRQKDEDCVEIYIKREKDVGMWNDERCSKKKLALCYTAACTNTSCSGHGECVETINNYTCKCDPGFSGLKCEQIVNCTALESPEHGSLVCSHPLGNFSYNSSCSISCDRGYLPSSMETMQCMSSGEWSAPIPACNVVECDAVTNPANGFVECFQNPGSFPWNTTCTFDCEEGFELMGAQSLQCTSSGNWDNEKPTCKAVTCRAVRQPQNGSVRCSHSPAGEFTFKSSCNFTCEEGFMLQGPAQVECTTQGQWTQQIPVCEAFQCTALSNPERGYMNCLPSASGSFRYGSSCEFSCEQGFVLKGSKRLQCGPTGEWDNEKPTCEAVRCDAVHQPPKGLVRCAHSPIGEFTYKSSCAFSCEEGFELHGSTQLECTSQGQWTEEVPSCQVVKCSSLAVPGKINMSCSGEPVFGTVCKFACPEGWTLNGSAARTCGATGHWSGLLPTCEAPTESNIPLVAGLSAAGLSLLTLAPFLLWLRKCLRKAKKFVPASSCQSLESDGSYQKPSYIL
Description: Cell adhesion to ELAM-1 was measured essentially as described previously (Pal et al., J. Biomed. Res. 2: 53, 1992). Undifferentiated HL-60 leukemia cells were prelabelled for 30 minutes with 1 μM calcein AM in DPBS without calcium or magnesium, and the cells were washed twice with the same medium before addition to 96-well plates containing monolayers of mouse L cells (5×10^4 cells/well) transfected with cDNA for the adhesion molecule ELAM-1. Adhesion was allowed to proceed for 30 minutes at room temperature before washing and quantitation of the remaining fluorescent HL-60 cells as described above.
ELAM-1 (E-selectin) is a member of the selectin class of adhesion molecules.

ICAM-1 = molecular target: T1, ICAM-1 (Homo sapiens, UniProt P05362); assay: HL-60 cell adhesion to recombinant soluble ICAM-1; format: cell-based; conditions: HL-60 cells
T1 construct: recombinant soluble ICAM-1 (2 μg/well)
T1 sequence (P05362 28-480 limits assumed): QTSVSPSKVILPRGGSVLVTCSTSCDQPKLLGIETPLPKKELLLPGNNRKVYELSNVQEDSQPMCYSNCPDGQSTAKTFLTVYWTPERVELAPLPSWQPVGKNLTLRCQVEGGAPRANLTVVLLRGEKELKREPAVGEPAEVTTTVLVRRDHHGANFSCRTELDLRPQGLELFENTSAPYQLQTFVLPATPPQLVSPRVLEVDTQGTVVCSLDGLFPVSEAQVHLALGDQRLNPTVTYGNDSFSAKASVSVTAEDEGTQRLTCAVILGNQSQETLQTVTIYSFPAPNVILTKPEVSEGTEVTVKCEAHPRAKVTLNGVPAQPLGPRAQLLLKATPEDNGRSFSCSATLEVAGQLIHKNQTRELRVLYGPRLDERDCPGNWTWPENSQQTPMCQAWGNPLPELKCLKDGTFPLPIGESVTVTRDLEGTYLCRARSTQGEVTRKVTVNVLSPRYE
Description: For measurement of cell adhesion to ICAM-1, HL-60 human leukemia cells were induced to differentiate in the presence of DMSO for 6 days. Adhesion of DMSO-differentiated HL-60 cells to recombinant soluble ICAM-1 (2 μg/well) was measured as described above for LOX cell adhesion, except that the adhesion was allowed to proceed for 30 minutes, rather than 1 hour, at 37° C.
ICAM-1 is a cell surface adhesion molecule that participates in cell-cell adhesion interactions, rather than cell-matrix adhesion interactions.

[5] = tested on: LOX human melanoma cell adhesion to murine laminin; assay: LOX cell adhesion to laminin; format: cell-based; conditions: read-out: Laminin IC50
Description: as §1

Compound	DYSP survivors ([1]; 10 mg/kg)	DYSP survivors ([1]; 50 mg/kg)	DYSP survivors ([1]; 100 mg/kg)	IC50 ([2]; 1 h, read-out: LOX FN IC50)	inhibition at 10 µM [2]	inhibition at 50 µM [2]	IC50 ([2]; read-out: Fibronectin IC50)	IC50 [3]	IC50 [4]	IC50 (LOX human melanoma cells; read-out: Invasion IC50)	inhibition of in vitro tumor cell invasion (LOX human melanoma cells)	IC50 (ELAM-1)	IC50 (ICAM-1)	IC50 [5]	responders at 100 mg/kg ([1]; Cavia porcellus, 1 h, 100 mg/kg, read-out: DYSP survivors (converted))	IC50 (LOX human melanoma cells; read-out: Invasion IC50 (text))
Cc1ccc(C2=C3CC4CCC(C3c3ccccc32)N4C)cc1 (stereo not drawn) [J]	0/3	1/3	3/3	5.3 µM	31.1%	101%	5.3 µM	17.9 µM	15.9 µM	0.48 µM	inhibit in vitro tumor cell invasion through a fibronectin/collagen matrix	> 50 µM	> 50 µM	2.5 µM	–	–
COc1ccc(C2=C3CC4CCC(N4)C3c3ccccc32)cc1 (stereo not drawn) [Compound B]	–	–	–	5.1 µM	61.8%	101%	5.1 µM	17.1 µM	14.7 µM	< 0.4 µM	inhibit in vitro tumor cell invasion through a fibronectin/collagen matrix	> 50 µM	> 50 µM	7.7 µM	0%	< 0.4 µM
CN1C2CCC1C1C(=C(c3ccc(Cl)cc3)c3ccccc31)C2 (stereo not drawn) [C]	–	–	0/3	7.3 µM	58.6%	101%	7.3 µM	13.7 µM	15.1 µM	0.66 µM	inhibit in vitro tumor cell invasion through a fibronectin/collagen matrix	> 50 µM	24.8 µM	3.5 µM	–	–
